Assay [1] addresses STE20-like serine/threonine-protein kinase (Homo sapiens) (UniProt Q9H2G2).
Assay [2] has as its target Dual specificity protein kinase CLK3 (Homo sapiens) (UniProt P49761).
Assay [3] deals with Dual specificity mitogen-activated protein kinase kinase 2 (Homo sapiens, UniProt P36507).
Assay [4] has as its target T1, 3-phosphoinositide-dependent protein kinase 1 (Homo sapiens) (UniProt O15530).
T1 sequence (whole entry): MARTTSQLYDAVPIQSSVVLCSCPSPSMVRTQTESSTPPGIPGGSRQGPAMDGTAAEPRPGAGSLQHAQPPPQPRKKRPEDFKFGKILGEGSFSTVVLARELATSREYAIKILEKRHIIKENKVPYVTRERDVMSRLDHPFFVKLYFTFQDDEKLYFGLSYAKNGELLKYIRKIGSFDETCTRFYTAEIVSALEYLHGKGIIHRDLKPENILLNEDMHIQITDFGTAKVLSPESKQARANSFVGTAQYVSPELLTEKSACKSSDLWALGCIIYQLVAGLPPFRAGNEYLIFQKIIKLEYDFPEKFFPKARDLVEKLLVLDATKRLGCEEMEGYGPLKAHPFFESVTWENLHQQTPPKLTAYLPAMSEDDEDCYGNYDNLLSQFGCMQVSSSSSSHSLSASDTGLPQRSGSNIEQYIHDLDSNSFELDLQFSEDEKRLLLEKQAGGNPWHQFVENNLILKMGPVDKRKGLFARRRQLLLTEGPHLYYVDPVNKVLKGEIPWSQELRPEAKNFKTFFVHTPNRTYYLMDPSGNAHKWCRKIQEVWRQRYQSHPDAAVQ

Assay [5] concerns the target Serine/threonine-protein kinase OSR1 (Homo sapiens) (UniProt O95747).
The target of assay [6] is Calcium/calmodulin-dependent protein kinase type 1D (Homo sapiens) (UniProt Q8IU85).
The target in assay [7] is Casein kinase I isoform gamma-2 (Homo sapiens) (UniProt P78368).
The target of assay [8] is cAMP-dependent protein kinase catalytic subunit alpha (Homo sapiens) (UniProt P17612).
Assay [9] addresses Dual specificity protein kinase CLK2 (Homo sapiens) (UniProt P49760).
In assay [10] the target is Cyclin-dependent kinase 16 (Homo sapiens) (UniProt Q00536).
Assay [11] has as its target T2, Serine/threonine-protein kinase PLK4 (Homo sapiens) (UniProt O00444).
T2 sequence (whole entry): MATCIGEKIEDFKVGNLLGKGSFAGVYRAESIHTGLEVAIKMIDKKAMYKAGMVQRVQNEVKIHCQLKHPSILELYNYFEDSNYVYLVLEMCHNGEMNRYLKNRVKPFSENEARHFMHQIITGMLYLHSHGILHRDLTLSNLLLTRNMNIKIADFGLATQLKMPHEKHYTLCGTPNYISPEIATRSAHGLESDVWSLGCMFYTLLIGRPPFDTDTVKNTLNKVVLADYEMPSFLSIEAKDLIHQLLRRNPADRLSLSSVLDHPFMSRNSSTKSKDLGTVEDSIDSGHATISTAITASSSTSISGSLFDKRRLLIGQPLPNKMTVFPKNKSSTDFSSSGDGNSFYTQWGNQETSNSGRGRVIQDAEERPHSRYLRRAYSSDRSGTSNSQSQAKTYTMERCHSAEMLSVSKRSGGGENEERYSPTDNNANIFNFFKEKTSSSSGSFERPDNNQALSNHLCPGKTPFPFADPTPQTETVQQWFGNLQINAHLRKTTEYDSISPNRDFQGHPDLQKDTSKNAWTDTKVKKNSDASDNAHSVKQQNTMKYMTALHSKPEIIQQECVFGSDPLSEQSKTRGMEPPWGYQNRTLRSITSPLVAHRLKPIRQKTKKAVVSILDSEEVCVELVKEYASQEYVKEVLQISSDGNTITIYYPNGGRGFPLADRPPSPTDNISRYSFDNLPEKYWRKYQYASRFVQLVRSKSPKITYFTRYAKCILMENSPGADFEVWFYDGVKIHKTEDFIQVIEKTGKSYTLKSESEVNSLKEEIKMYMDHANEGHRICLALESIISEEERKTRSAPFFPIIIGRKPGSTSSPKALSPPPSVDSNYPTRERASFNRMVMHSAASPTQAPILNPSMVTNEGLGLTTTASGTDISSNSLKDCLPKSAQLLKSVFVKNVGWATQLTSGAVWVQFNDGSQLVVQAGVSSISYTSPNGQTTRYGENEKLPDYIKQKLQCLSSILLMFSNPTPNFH

Assay [12] concerns the target Serine/threonine-protein kinase pim-3 (Homo sapiens) (UniProt Q86V86).
Assay [13] deals with T3, Lymphokine-activated killer T-cell-originated protein kinase (Homo sapiens) (UniProt Q96KB5).
T3 sequence (whole entry): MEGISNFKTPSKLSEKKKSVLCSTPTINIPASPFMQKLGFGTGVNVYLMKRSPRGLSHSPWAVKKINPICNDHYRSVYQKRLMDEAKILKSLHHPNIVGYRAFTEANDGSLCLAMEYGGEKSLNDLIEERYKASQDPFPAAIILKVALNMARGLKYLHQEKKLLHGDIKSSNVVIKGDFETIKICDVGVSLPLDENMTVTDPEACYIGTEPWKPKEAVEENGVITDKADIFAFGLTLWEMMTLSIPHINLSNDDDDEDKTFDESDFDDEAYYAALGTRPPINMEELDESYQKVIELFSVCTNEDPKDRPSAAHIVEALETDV

Assay [14] deals with Mitogen-activated protein kinase 6 (Homo sapiens) (UniProt Q16659).
Assay [15] addresses Casein kinase I isoform gamma-3 (Homo sapiens) (UniProt Q9Y6M4).
For assay [16], the target named is Dual specificity protein kinase CLK1 (Homo sapiens) (UniProt P49759).
The target of assay [17] is Serine/threonine-protein kinase RIO2 (Homo sapiens) (UniProt Q9BVS4).

One may read the ΔTm as the shift of the melting midpoint relative to a reference.

Structures are written as SMILES.

Sequence of Calcium/calmodulin-dependent protein kinase type 1D (Homo sapiens) (Q8IU85 whole entry, looked up, canonical isoform): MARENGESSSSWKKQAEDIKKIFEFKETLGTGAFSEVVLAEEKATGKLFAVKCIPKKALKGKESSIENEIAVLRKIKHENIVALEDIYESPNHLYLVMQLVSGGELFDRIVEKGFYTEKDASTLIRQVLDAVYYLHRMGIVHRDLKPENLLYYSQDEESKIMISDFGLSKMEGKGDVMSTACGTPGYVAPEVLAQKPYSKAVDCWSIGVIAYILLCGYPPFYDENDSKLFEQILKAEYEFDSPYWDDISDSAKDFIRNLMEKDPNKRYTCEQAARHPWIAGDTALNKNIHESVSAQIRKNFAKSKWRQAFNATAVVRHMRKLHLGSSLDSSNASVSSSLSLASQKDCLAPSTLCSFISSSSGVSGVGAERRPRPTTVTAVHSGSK
Sequence of Dual specificity protein kinase CLK1 (Homo sapiens) (P49759 whole entry, looked up): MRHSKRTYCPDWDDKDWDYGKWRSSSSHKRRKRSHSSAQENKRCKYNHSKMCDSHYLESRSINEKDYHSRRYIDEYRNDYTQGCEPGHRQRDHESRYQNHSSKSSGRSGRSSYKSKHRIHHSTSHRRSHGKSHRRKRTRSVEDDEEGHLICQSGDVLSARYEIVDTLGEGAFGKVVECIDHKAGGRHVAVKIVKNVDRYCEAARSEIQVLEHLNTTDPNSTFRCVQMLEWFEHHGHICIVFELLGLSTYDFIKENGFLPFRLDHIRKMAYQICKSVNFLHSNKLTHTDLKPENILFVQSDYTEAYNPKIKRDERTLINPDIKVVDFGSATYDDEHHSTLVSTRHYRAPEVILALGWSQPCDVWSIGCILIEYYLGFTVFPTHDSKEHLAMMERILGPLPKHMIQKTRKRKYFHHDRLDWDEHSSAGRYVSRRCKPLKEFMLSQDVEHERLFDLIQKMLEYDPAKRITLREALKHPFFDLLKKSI
Sequence of Casein kinase I isoform gamma-2 (Homo sapiens) (P78368 whole entry, looked up, canonical isoform): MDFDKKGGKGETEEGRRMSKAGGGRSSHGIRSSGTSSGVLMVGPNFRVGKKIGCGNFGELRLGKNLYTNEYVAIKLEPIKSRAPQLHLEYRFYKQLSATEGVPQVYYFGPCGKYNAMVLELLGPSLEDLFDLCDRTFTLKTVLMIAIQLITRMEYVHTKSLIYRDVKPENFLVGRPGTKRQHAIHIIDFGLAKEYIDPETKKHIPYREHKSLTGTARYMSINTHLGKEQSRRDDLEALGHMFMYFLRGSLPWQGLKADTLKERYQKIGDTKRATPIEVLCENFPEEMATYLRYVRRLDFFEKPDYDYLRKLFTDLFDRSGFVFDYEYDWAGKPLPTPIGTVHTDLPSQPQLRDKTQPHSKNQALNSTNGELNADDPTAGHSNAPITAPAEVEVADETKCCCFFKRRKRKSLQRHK
Sequence of Dual specificity mitogen-activated protein kinase kinase 2 (P36507 whole entry): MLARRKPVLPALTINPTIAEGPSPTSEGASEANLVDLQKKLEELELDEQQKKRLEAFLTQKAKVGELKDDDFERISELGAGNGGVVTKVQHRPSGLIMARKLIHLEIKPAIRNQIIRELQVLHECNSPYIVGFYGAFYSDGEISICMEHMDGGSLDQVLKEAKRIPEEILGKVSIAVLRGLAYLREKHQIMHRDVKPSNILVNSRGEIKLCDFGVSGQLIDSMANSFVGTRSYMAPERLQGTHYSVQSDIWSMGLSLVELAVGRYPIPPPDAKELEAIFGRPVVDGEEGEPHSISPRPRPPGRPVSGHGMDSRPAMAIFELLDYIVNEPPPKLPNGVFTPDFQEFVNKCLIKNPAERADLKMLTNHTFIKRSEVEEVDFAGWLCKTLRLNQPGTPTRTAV
Sequence of Dual specificity protein kinase CLK3 (Homo sapiens) (P49761 whole entry, looked up): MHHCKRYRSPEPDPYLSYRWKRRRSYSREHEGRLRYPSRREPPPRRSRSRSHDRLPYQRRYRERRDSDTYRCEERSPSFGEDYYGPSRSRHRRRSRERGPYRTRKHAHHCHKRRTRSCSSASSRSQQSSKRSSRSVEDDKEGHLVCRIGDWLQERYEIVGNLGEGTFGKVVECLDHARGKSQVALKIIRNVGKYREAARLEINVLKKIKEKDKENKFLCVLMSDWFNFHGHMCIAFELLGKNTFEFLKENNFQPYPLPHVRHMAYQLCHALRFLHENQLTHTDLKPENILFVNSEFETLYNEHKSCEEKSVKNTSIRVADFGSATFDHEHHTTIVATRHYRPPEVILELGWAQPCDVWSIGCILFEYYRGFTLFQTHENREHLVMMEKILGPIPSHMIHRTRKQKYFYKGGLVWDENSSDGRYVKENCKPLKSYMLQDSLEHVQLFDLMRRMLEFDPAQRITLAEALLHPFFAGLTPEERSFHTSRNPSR
Sequence of Cyclin-dependent kinase 16 (Homo sapiens) (Q00536 whole entry): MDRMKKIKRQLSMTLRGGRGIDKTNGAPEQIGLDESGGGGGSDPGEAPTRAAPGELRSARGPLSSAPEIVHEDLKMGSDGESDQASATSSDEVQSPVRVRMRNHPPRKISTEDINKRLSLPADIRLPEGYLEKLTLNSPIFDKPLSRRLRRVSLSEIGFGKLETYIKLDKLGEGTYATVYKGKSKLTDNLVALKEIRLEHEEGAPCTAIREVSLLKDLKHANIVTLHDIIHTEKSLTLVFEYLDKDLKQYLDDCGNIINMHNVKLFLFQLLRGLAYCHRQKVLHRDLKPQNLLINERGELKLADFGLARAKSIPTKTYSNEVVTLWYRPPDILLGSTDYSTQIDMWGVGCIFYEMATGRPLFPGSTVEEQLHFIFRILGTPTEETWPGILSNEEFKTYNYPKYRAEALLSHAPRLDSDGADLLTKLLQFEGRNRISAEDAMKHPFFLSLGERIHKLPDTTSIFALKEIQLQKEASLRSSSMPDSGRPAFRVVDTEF
Sequence of Dual specificity protein kinase CLK2 (Homo sapiens) (P49760 whole entry, looked up): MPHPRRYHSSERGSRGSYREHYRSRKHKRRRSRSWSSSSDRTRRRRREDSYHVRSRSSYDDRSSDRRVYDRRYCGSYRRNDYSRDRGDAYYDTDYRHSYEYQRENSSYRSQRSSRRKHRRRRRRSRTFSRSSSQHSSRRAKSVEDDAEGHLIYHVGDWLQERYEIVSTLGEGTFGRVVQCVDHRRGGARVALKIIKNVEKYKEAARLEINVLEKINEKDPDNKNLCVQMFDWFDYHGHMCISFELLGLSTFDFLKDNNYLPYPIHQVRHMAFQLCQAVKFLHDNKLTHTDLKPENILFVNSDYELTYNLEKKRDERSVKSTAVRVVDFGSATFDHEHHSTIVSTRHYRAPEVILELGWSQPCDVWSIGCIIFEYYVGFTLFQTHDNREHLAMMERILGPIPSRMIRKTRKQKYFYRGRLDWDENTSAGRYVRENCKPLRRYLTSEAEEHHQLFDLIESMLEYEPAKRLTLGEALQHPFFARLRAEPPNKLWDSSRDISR
Sequence of Serine/threonine-protein kinase RIO2 (Homo sapiens) (Q9BVS4 whole entry, looked up): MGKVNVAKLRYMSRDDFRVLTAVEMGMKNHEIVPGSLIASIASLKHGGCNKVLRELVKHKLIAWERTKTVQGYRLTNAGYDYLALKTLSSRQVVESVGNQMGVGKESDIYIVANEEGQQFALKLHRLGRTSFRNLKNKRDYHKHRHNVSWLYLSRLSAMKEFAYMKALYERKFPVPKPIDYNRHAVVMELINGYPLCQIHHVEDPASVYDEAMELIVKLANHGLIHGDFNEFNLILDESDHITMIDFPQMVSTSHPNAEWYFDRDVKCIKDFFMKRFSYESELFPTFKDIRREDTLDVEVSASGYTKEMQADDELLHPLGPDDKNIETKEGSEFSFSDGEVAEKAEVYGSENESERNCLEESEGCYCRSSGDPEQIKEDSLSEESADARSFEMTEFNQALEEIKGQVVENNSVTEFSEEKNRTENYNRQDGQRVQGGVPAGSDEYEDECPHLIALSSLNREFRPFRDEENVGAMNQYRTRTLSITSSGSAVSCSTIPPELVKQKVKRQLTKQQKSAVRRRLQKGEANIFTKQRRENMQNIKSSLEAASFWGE
Sequence of Casein kinase I isoform gamma-3 (Homo sapiens) (Q9Y6M4 whole entry, looked up, canonical isoform): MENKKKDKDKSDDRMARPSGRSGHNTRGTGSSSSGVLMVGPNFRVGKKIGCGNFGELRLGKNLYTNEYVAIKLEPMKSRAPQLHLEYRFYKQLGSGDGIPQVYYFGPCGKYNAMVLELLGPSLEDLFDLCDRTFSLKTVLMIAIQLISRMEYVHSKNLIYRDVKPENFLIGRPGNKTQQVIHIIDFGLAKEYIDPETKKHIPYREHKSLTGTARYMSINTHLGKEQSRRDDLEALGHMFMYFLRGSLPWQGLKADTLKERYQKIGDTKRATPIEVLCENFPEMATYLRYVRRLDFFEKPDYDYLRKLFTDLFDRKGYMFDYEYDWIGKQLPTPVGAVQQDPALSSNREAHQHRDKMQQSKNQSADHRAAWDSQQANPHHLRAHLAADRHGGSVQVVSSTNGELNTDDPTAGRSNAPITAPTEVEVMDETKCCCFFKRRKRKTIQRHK

In the case of `Nc1cc2ncnc(Nc3cccc(Br)c3)c2cc1N`, the thermal shift (ΔTm) in assay [1] is 5.7 °C; in assay [2] it was 1.6 °C; in assay [3] it was 1.2 °C; in [4], -0.2 °C; in [5], 1 °C; in assay [6] it was 0.6 °C. In addition, the ΔTm is 0.4 °C in assay [7]; 1 °C in assay [8]; 1.6 °C in assay [9]; -0.4 °C in assay [10]; 1.5 °C in [11]; 3.2 °C in [12]. Moreover, the thermal shift (ΔTm) is -0.2 °C in assay [13]; 0.6 °C in [14]; 0.4 °C in assay [15]; 2.2 °C in assay [16]; 3.4 °C in assay [17].

`CC(C)(C)c1nc2c3ccc(F)cc3c3c(=O)[nH]ccc3c2[nH]1`: the ΔTm in assay [1] was 1.8 °C; in assay [2], 2.4 °C; in assay [3], 3.6 °C; in assay [4], -1.3 °C; in [5] it was 3 °C; in assay [6] it was 3.6 °C. Moreover, the ΔTm is 0.7 °C in assay [7]; 2.6 °C in assay [8]; 3.6 °C in assay [9]; 0 °C in assay [10]; 11.8 °C in assay [11]; 7.2 °C in [12]. Moreover, the thermal shift (ΔTm) is -0.6 °C in assay [13]; 0.2 °C in assay [14]; 0.8 °C in assay [15]; 4.3 °C in assay [16]; 0.7 °C in assay [17].

Consider `Nc1ncnc2c1c(I)cn2[C@@H]1O[C@H](CO)[C@@H](O)[C@H]1O`, for which the ΔTm in [1] turned out to be 4.2 °C; in [2], 7.3 °C; in assay [3], 1.9 °C; in [4] it was 0 °C; in assay [5] it was 2.4 °C; in [6], 0.2 °C. The ΔTm in assay [7] was 3.7 °C; in [8], 1.3 °C; in assay [9] it was 5.6 °C; in assay [10], 0.1 °C; in assay [11], 2.9 °C; in assay [12] it was 1.5 °C. Moreover, the ΔTm in assay [13] is 0 °C; in assay [14], -0.1 °C; in assay [15] it was 2.7 °C; in assay [16], 9.5 °C; in [17] it was 1.7 °C.

For the molecule `COc1ccc(COc2ccc(Cc3cnc(N)nc3N)cc2OC)cc1`, the thermal shift (ΔTm) in assay [1] was 0.1 °C; in assay [2] it was 0.1 °C; in [3], 0 °C; in assay [4], -0.9 °C; in [5], 0.3 °C; in [6] it was 0.1 °C. The shift in melting temperature (ΔTm) in assay [7] is -0.2 °C; in assay [8], -0.2 °C; in [9] it was -0.2 °C; in [10] it was 0.1 °C; in assay [11], -0.1 °C; in [12], 0 °C. Moreover, the ΔTm in assay [13] was -0.1 °C; in assay [14], 1.5 °C; in [15] it was 0.5 °C; in assay [16] it was -1.5 °C; in [17], 0.2 °C.

For `O=C1Cc2c([nH]c3ccc([N+](=O)[O-])cc23)-c2ccccc2N1`, the ΔTm in [1] came to 2.1 °C; in [2], 1 °C; in assay [3], 0.3 °C; in [4] it was 0 °C; in [5], 1.2 °C; in assay [6], 0.8 °C. In addition, the thermal shift (ΔTm) in assay [7] was found to be 0.8 °C; in [8], 1.6 °C; in assay [9] it was 0.7 °C; in assay [10], 3.8 °C; in assay [11], 6.9 °C; in assay [12], 2.8 °C. Moreover, the ΔTm in assay [13] stood at 0.1 °C; in [14], 1.2 °C; in assay [15], 0.9 °C; in assay [16], 2.2 °C; in [17] it was 1.3 °C.

As to `CC(C)c1cc(/C=C(\C#N)C(=O)NCCCc2ccccc2)cc(C(C)C)c1O`, the thermal shift (ΔTm) in [1] is 1.2 °C; in assay [2], 1.2 °C; in assay [3] it was 0.3 °C; in assay [4] it was -0.5 °C; in [5], 0.9 °C; in assay [6], 1.1 °C. Further, the ΔTm in assay [7] was 0.5 °C; in assay [8], 0.5 °C; in assay [9], 1.3 °C; in assay [10] it was -0.1 °C; in assay [11], 0.9 °C; in assay [12], 0.3 °C. For the same molecule, the shift in melting temperature (ΔTm) is -0.2 °C in assay [13]; 1.3 °C in [14]; 0.7 °C in [15]; 2.8 °C in assay [16]; -0.5 °C in assay [17].
